Counter-ions that a name gives are not always drawn. Like-named read-outs stand apart in the source and are kept apart here.

Data set [1] relates to Meerschweinchen-Papillarmuskel. Nature of the data set: Contraction force of the heart on papillary muscle (negative inotropy). It is filed as cell-based. To be noted: for IC20: concentration that reduces contraction of the papillary muscle by 20 %, read-out: C20 CF. From the text: Die Wirkung auf die Kontraktionskraft des Herzens wurde am Meerschweinchen-Papillarmuskel untersucht. Hämodynamische Studien wurden bei gesunden, wie auch akut infarzierten Hunden durchgeführt.

Data set [2] relates to Purkinje-Fasern aus Hundeherzen. Description: Electrophysiological studies on Purkinje fibres (Vmax). It is filed as cell-based, Hund. To be noted: for IC20: purkinje, read-out: C20 Vmax. An excerpt:
Die antiarrhythmische Wirksamkeit der erfindungsgemäßen Verbindungen wurde sowohl anhand von elektrophysiologischen Studien an Purkinje-Fasern aus Hundeherzen sowie mit Hilfe von Ouabain-induzierten ventrikulären Tachykardien bei Hunden bestimmt. […]
Als zusätzliches Kriterium wurde der Vorzeitigkeitsindex (Prematurity-Faktor) bestimmt, der die erwünschte Wirksamkeit der erfindungsgemäßen Verbindungen bei vorzeitigen Extrasystolen charakterisiert.

Data set [3] in a line: Acute toxicity LD50, rat i.v. To be noted: in vivo, iv, Ratte (i.v.), read-out: LD₅₀. An excerpt: (§1) Dies ergibt sich aus einem Vergleich der LD₅₀-Werte bei Ratten und Mäusen, die in Tabelle (II) zusammengefaßt sind. Tabelle I
Data set [4] is described as follows: Acute toxicity LD50, mouse i.v. Conditions: in vivo, iv, Maus (i.v.), read-out: LD₅₀.
Excerpt: as §1

Setting [5] is: (% of control Vmax at cycle length 2000) / (% of control Vmax at cycle length 500) at C20 Vmax.
Setting [6] is: (% of control Vmax at premature extrasystoles) / (% of control Vmax at a normal beat) at Vmax.

For the compound `CCCNCC(O)COc1ccccc1C(=O)CCc1ccccc1` (centres unmarked) [A, Propafenon, reference compound], in data set [1], the “C20 CF” value is reported as 5,3 µM. Further, in data set [2], the “C20 Vmax” value was 3,7 µM, the “Prematurity Faktor Vmax” value is 0,97 and the “Rate-Faktor von Vmax” value is 1,08.
`CCCNCC(O)COc1ccccc1CCC(=O)c1ccc(OC)c(OC)c1.Cl` (centres unmarked) [Beispiel 1, 1-(3,4-Dimethoxyphenyl)-3-[2′-(2-hydroxy-3-n-propylaminopropoxy)-phenyl]-1-propanon-hydrochlorid]: the IC20 came out at 15 µM in data set [1] and 12.5 µM in data set [2]. Besides, in data set [2] (setting [5]), the “Rate-Faktor von Vmax” value is given as 5,00. The “Prematurity Faktor Vmax” value in data set [2] (setting [6]) is on record as 0,50. Further, the figures for the LD50 in data set [3] and in data set [4] were 17 mg/kg and 16 mg/kg, respectively.
`CCC(C)(C)NCC(O)COc1ccccc1CCC(=O)c1ccc(OC)c(OC)c1.Cl` (centres unmarked) [Beispiel 2, 1-(3,4-Dimethoxyphenyl)-3-[2′-(2-hydroxy-3-tert.-pentylamino-propoxy)-phenyl]-1-propanon-hydrochlorid]: the figures for the IC20 in data set [1] and in data set [2] were 8 µM and 3.6 µM, respectively. Further, the “Rate-Faktor von Vmax” value in data set [2] (setting [5]) is reported as 1,27. The “Prematurity Faktor Vmax” value in data set [2] (setting [6]) was 1,15.
With `COc1ccc(C(=O)CCc2ccccc2OCC(O)CNC(C)C)cc1OC.Cl` (centres unmarked) [Beispiel 4, 1-(3,4-Dimethoxyphenyl)-3-[2′-(2-hydroxy-3-isopropylamino-propoxy)-phenyl]-1-propanon-hydrochlorid], the IC20 in data set [1] turned out to be 22 µM; in data set [2] it was 4.8 µM. Moreover, in data set [2] (setting [5]), the “Rate-Faktor von Vmax” value was 1,13. Also, the “Prematurity Faktor Vmax” value in data set [2] (setting [6]) is listed as 1,01.
The like results for `COc1ccc(C(=O)CCc2ccccc2OCC(O)CNC(C)(C)C)cc1OC.Cl` (centres unmarked) [Beispiel 5, 1-(3,4-Dimethoxyphenyl)-3-[2′-(2-hydroxy-3-tert.-butylamino-propoxy)-phenyl]-1-propanon-hydrochlorid] were, in that order, 12 µM, 4.4 µM, 1,39 and 0,98.
Take `COc1ccc(C(=O)CCc2ccccc2OCC(O)CN2CCCCC2)cc1OC` (centres unmarked) [Beispiel 6]: the “C20 CF” value in data set [1] was 20,0 µM. Also, in data set [2], the “C20 Vmax” value is recorded as 11,3 µM, the “Prematurity Faktor Vmax” value is given as 0,70 and the “Rate-Faktor von Vmax” value is on record as 1,32.
The like results for `COc1ccc(C(=O)CCc2ccccc2OCC(O)CNCC(C)O)cc1OC` (centres unmarked) [Beispiel 7, 1-(3,4-Dimethoxyphenyl)-3-[2′-(2-hydroxy-3(2˝-hydroxy-propylamino)-propoxy)-phenyl]-1-propanon-hydrochlorid] were, in that order, 18,0 µM, 5,7 µM, 0,98 and 1,39.
With `COc1ccc(C(=O)CCc2ccccc2OCC(O)CNCCO)cc1OC` (centres unmarked) [Beispiel 8, 1-(3,4-Dimethoxyphenyl)-3-[2′-(2-hydroxy-3(2˝-hydroxy-ethylamino)-propoxy)-phenyl]-1-propanon-hydrochlorid], the “C20 CF” value in data set [1] was 13,0 µM. In addition, in data set [2], the “C20 Vmax” value was 8,3 µM, the “Prematurity Faktor Vmax” value is recorded as 0,97 and the “Rate-Faktor von Vmax” value is on record as 1,34.
With `CCC(CO)NCC(O)COc1ccccc1CCC(=O)c1ccc(OC)c(OC)c1` (centres unmarked) [Beispiel 9, 1-(3,4-Dimethoxyphenyl)-3-[2′-(2-hydroxy-3-(1˝-hydroxy-but-2-ylamino)-propoxy)-phenyl]-1-propanon-oxalat], the “C20 CF” value in data set [1] is on record as 25,0 µM. Further, in data set [2], the “C20 Vmax” value is 10,2 µM, the “Prematurity Faktor Vmax” value is reported as 0,97 and the “Rate-Faktor von Vmax” value is reported as 1,30.
With `COc1cc(C(=O)CCc2ccccc2OCC(O)CNC(C)C)cc(OC)c1OC.Cl` (centres unmarked) [Beispiel 12, 1-(3,4,5-Trimethoxyphenyl)-3-[2′-(2-hydroxy-3-isopropylamino-propoxy)-phenyl]-1-propanon-hydrochlorid], the IC20 in data set [1] came to 18 µM; in data set [2] it was 5.8 µM. In addition, in data set [2] (setting [5]), the “Rate-Faktor von Vmax” value is 1,14. Moreover, the “Prematurity Faktor Vmax” value in data set [2] (setting [6]) is 0,90.
`COc1cc(C(=O)CCc2ccccc2OCC(O)CNC2CCCCC2)cc(OC)c1OC.Cl` (centres unmarked) [Beispiel 16, 1-(3,4,5-Trimethoxyphenyl)-3-[2′-(2-hydroxy-3-cyclohexylamino-propoxy)-phenyl]-1-propanon-hydrochlorid]: the IC20 in data set [1] worked out at 9 µM; in data set [2], 11.9 µM. For the same compound, the “Rate-Faktor von Vmax” value in data set [2] (setting [5]) is listed as 5,00. In data set [2] (setting [6]), the “Prematurity Faktor Vmax” value was 0,50.
Regarding `COc1cccc(C(=O)CCc2ccccc2OCC(O)CNC(C)C)c1.Cl` (centres unmarked) [Beispiel 24, 1-(3-Methoxyphenyl)-3-[2′-(2-hydroxy-3-isopropylamino-propoxy)-phenyl]-1-propanon-hydrochlorid], the results for the IC20 in data set [1] and in data set [2] were 10 µM and 1.6 µM, respectively. Moreover, the “Rate-Faktor von Vmax” value in data set [2] (setting [5]) is given as 1,15. The “Prematurity Faktor Vmax” value in data set [2] (setting [6]) is given as 1,01.
The like results for `CCCNCC(O)COc1ccccc1CCC(=O)c1cccc(OC)c1.Cl` (centres unmarked) [Beispiel 26, 1-(3-Methoxyphenyl)-3-[2′-(2-hydroxy-3-n-propylamino-propoxy)-phenyl]-1-propanon-hydrochlorid] were, in that order, 3 µM, 1.7 µM, 1,16 and 0,93.
As to `COc1cccc(C(=O)CCc2ccccc2OCC(O)CNC(C)(C)C)c1.Cl` (centres unmarked) [Beispiel 27, 1-(3-Methoxyphenyl)-3-[2′-(2-hydroxy-3-tert.-butylamino-propoxy)-phenyl]-1-propanon-hydrochlorid], the IC20 worked out at 4 µM in data set [1] and 1.6 µM in data set [2]. For the same compound, the “Rate-Faktor von Vmax” value in data set [2] (setting [5]) is given as 0,99. Also, the “Prematurity Faktor Vmax” value in data set [2] (setting [6]) is recorded as 1,24.
As for `COc1ccccc1C(=O)CCc1ccccc1OCC(O)CNC(C)(C)C.Cl` (centres unmarked) [Beispiel 38, 1-(2-Methoxyphenyl)-3-[2′-(2-hydroxy-3-tert.-butylamino-propoxy)-phenyl]-1-propanon-hydrochlorid], the IC20 was found to be 7 µM in data set [1] and 1.7 µM in data set [2]. Further, the “Rate-Faktor von Vmax” value in data set [2] (setting [5]) was 1,30. In data set [2] (setting [6]), the “Prematurity Faktor Vmax” value is 0,97. Moreover, the figures for the LD50 in data set [3] and in data set [4] were 15 mg/kg and 17 mg/kg, respectively.
As to `Cc1ccc(C(=O)CCc2ccccc2OCC(O)CNC(C)(C)C)cc1.Cl` (centres unmarked) [Beispiel 44, 1-(4-Methylphenyl)-3-[2′-(2-hydroxy-3-tert.-butylamino-propoxy)-phenyl]-1-propanon-hydrochlorid], the figures for the IC20 in data set [1] and in data set [2] were 6 µM and 2.6 µM, respectively. Further, in data set [2] (setting [5]), the “Rate-Faktor von Vmax” value is listed as 1,11. In addition, the “Prematurity Faktor Vmax” value in data set [2] (setting [6]) is listed as 0,99.
The like results for `Cl.O=C(CCc1ccccc1OCC(O)CNC1CCCCC1)c1ccccc1` (centres unmarked) [Beispiel 46, 1-Phenyl,-3-[2′-(2-hydroxy-3-cyclohexylamino-propoxy)-phenyl]-1-propanon-hydrochlorid] were, in that order, 2 µM, 2.2 µM, 2,50 and 0,92.
The like results for `Cl.O=C(CCc1ccccc1OCC(O)CN1CCCCC1)c1ccccc1` (centres unmarked) [Beispiel 47, 1-Phenyl-3-[2′-(2-hydroxy-3-piperidino-propoxy)-phenyl]-1-propanon-hydrochlorid] were, in that order, 2 µM, 0.3 µM, 1,08 and 0,99.
The like results for `CC(C)(C)NCC(O)COc1ccccc1CCC(=O)c1ccccc1.Cl` (centres unmarked) [Beispiel 48, 1-Phenyl-3-[2′-(2-hydroxy-3-tert.-butylamino-propoxy)-phenyl]-1-propanon-hydrochlorid] were, in that order, 3 µM, 1 µM, 1,18 and 0,91.
